Key:
[1] = Plasma and brain concentrations in male mice at 0.5 and 1 h; type: in vivo
[2] = Pharmacokinetics and bioavailability in male mice, oral single dose; type: in vivo; conditions: oral 10 mg/kg

Row | Compound | Brain Concentration ([1]; IV, 0.5 h) | Plasma Concentration ([1]; IV, 0.5 h) | Brain Concentration ([1]; IV, 1 h) | Plasma Concentration ([1]; IV, 1 h) | Brain Concentration ([1]; PO, 0.5 h) | Plasma Concentration ([1]; PO, 0.5 h) | Brain Concentration ([1]; PO, 1 h) | Plasma Concentration ([1]; PO, 1 h) | AUClast [2] | Tmax [2]
1 | C[C@H](O)CNC(=O)c1cnccc1Nc1cc(-c2cc(Cl)ccc2F)ncc1N(C)C (single isomer, unassigned) [16a] | 48 nM | 3040 nM | 19 nM | 1230 nM | 48 nM | 3420 nM | 25 nM | 1690 nM | 7.50 µM·h | 30 min
2 | CC(C)c1cnc(-c2cc(Cl)ccc2F)cc1Nc1ccncc1C(=O)NC(CO)CO [compound 22, 4-[[2-(5-chloro-2-fluoro-phenyl)-5-isopropyl-4-pyridyl]amino]-N-[2-hydroxy-1-(hydroxymethyl)ethyl]pyridine-3-carboxamide] | 7 nM | 1690 nM | 5 nM | 967 nM | 20 nM | 7070 nM | 15 nM | 3530 nM |  | 
